Laboratory results reported in patent publication US12172995B2, “Substituted indole and indazole compounds” (BRISTOL-MYERS SQUIBB COMPANY, priority 2018, dated 2024).
pIC50: −log10 of the molar value.

Legend:
Type in all cases: cell-based
human TLR7 = molecular target: T1, human TLR7 (Homo sapiens, UniProt Q9NYK1); experiment: TLR7 inhibition reporter assay (HEK-Blue SEAP); conditions: HEK-Blue cells overexpressing human TLR7, stimulated with gardiquimod 7.5 μM, 22 hour incubation
T1 construct: host or cells: HEK-Blue cells
T1 sequence (Q9NYK1 27-1049): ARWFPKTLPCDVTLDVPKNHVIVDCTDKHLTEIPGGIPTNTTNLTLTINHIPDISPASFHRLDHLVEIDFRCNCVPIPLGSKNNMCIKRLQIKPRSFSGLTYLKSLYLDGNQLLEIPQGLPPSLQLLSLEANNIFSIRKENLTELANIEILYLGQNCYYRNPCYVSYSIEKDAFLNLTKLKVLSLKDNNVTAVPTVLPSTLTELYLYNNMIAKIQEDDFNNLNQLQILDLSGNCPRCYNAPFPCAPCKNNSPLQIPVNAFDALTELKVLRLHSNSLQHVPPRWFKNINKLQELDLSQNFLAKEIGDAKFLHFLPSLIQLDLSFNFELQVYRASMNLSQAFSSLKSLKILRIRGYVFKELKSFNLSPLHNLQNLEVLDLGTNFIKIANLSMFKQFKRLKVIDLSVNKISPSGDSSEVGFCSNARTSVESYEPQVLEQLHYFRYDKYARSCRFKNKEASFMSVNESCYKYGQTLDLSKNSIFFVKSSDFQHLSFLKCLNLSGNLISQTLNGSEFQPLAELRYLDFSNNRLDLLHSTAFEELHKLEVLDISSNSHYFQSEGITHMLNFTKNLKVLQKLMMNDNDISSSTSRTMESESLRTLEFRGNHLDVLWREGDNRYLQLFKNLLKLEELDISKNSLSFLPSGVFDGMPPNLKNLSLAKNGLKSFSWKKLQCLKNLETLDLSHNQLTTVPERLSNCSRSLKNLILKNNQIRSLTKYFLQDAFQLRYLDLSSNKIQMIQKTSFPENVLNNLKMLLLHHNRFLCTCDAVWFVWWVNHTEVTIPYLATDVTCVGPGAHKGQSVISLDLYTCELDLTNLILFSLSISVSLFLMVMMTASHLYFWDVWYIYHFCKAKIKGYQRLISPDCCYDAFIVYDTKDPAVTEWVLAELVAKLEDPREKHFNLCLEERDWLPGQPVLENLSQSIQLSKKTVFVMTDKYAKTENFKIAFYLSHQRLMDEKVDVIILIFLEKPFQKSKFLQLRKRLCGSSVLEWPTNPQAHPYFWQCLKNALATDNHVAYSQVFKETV
Outline: (§1)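 Cells are seeded, given test compound across 0.05 nM to 50 μM, and after 30 min at room temperature stimulated with the receptor's agonist (gardiquimod 7.5 μM, R848 15.9 μM or ODN2006 5 nM for TLR7, 8, 9). SEAP is measured after 22 h at 37 °C.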

human TLR8 = molecular target: T2, human TLR8 (Homo sapiens, UniProt Q9NR97); experiment: TLR8 inhibition reporter assay (HEK-Blue SEAP); conditions: HEK-Blue cells overexpressing human TLR8, stimulated with R848 15.9 μM, 22 hour incubation
T2 construct: host or cells: HEK-Blue cells
T2 sequence (Q9NR97 27-1041): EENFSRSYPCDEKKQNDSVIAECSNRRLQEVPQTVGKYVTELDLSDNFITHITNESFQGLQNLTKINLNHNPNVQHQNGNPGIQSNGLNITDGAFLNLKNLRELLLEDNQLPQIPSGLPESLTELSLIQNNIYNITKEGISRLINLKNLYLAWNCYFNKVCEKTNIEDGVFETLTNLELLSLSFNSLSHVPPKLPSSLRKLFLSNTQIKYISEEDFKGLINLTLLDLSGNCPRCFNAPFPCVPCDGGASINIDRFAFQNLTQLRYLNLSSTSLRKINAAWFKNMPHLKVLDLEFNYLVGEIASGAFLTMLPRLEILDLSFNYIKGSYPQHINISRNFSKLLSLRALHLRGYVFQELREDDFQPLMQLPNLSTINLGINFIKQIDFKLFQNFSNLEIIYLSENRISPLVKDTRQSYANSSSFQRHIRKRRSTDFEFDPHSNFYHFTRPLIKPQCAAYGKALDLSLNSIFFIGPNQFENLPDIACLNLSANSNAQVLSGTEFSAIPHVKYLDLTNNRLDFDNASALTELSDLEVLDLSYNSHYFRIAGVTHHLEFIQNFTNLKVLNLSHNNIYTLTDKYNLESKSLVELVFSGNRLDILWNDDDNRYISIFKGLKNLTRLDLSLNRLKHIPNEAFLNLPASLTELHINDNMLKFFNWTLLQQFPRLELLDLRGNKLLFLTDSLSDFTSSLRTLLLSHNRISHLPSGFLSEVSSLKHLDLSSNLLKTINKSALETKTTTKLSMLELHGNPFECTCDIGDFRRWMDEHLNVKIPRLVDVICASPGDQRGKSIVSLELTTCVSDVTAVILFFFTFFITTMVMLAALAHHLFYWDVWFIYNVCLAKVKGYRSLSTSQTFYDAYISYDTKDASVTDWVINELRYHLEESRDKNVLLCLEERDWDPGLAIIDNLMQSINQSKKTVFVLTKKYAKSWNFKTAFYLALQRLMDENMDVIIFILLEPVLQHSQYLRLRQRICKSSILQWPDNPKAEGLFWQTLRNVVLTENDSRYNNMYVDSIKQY
Outline: as §1

human TLR9 = molecular target: T3, human TLR9 (Homo sapiens, UniProt Q9NR96); experiment: TLR9 inhibition reporter assay (HEK-Blue SEAP); conditions: HEK-Blue cells overexpressing human TLR9, stimulated with ODN2006 5 nM, 22 hour incubation
T3 construct: host or cells: HEK-Blue cells
T3 sequence (Q9NR96 26-1032): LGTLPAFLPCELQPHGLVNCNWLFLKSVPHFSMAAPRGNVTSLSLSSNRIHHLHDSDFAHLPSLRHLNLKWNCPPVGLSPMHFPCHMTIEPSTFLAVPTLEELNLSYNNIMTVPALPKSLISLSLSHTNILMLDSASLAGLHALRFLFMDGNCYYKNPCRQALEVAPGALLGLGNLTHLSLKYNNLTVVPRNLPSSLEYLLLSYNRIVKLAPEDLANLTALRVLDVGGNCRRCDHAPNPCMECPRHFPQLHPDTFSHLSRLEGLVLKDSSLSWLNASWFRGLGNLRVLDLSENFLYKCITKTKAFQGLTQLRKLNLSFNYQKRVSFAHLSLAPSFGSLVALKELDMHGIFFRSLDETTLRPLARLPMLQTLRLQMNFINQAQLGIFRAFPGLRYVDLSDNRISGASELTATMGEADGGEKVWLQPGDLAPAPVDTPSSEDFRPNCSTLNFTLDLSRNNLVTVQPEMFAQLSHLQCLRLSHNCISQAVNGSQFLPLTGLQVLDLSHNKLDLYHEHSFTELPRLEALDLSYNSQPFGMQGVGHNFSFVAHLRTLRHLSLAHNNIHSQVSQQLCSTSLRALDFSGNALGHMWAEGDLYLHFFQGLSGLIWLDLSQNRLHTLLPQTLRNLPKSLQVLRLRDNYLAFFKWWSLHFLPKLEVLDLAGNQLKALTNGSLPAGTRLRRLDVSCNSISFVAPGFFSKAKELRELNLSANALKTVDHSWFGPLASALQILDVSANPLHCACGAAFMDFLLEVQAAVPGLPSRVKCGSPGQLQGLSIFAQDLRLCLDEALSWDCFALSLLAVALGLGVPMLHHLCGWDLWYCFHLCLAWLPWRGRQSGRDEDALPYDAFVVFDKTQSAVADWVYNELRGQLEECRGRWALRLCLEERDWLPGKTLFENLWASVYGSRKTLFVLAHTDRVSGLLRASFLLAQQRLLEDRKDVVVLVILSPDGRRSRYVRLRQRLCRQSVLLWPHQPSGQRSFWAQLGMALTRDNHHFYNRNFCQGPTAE
Outline: as §1

Cc1cc2c(OC3CCC(N(C)C)CC3)n[nH]c2cc1-c1cc(C)c2ncnn2c1 (single isomer, unassigned) [Example 182, N,N-dimethyl-4-((5-methyl-6-(8-methyl-[1,2,4]triazolo[1,5-a]pyridin-6-yl)-1H-indazol-3-yl)oxy)cyclohexan-1-amine]
pIC50 (human TLR7): 7.59 | pIC50 (human TLR8): 8.24 | pIC50 (human TLR9): 4.56

COc1cc(-c2cc(C)c3c(OC4CCC(N(C)C)CC4)n[nH]c3c2)cn2ncnc12 (single isomer, unassigned) [Example 183, 4-((6-(8-methoxy-[1,2,4]triazolo[1,5-a]pyridin-6-yl)-4-methyl-1H-indazol-3-yl)oxy)-N,N-dimethylcyclohexan-1-amine]
pIC50 (human TLR7): 8.31 | pIC50 (human TLR8): 8.09 | pIC50 (human TLR9): 5.64

COc1cc(-c2cc(C)c3c(OC4CCC(N(C)C)CC4)n[nH]c3c2)cn2ncnc12 (single isomer, unassigned) [Example 184, 4-((6-(8-methoxy-[1,2,4]triazolo[1,5-a]pyridin-6-yl)-4-methyl-1H-indazol-3-yl)oxy)-N,N-dimethylcyclohexan-1-amine]
pIC50 (human TLR7): 8.74 | pIC50 (human TLR8): 8.74 | pIC50 (human TLR9): 5.92

Cc1cc(-c2cc(C)c3ncnn3c2)cc2[nH]nc(OC3CCC(NCC(=O)N(C)C)CC3)c12 (single isomer, unassigned) [Example 185, N,N-dimethyl-2-((4-((4-methyl-6-(8-methyl-[1,2,4]triazolo[1,5-a]pyridin-6-yl)-1H-indazol-3-yl)oxy)cyclohexyl)amino)acetamide]
pIC50 (human TLR7): 7.68 | pIC50 (human TLR8): 8.02 | pIC50 (human TLR9): 5.56

Cc1cc(-c2cc(C)c3ncnn3c2)cc2[nH]nc(OC3CCC(NCC(=O)N(C)C)CC3)c12 (single isomer, unassigned) [Example 186, N,N-dimethyl-2-((4-((4-methyl-6-(8-methyl-[1,2,4]triazolo[1,5-a]pyridin-6-yl)-1H-indazol-3-yl)oxy)cyclohexyl)amino)acetamide]
pIC50 (human TLR7): 8.62 | pIC50 (human TLR8): 8.72 | pIC50 (human TLR9): 5.59

Cc1cc(-c2cc(C)c3ncnn3c2)cc2[nH]nc(OC3CCC(NC4CC4)CC3)c12 (single isomer, unassigned) [Example 189, N-cyclopropyl-4-((4-methyl-6-(8-methyl-[1,2,4]triazolo[1,5-a]pyridin-6-yl)-1H-indazol-3-yl)oxy)cyclohexan-1-amine]
pIC50 (human TLR7): 7.91 | pIC50 (human TLR8): 8.09 | pIC50 (human TLR9): 5.63

Cc1cc(-c2cc(C)c3ncnn3c2)cc2[nH]nc(OC3CCC(NC4CC4)CC3)c12 (single isomer, unassigned) [Example 190, N-cyclopropyl-4-((4-methyl-6-(8-methyl-[1,2,4]triazolo[1,5-a]pyridin-6-yl)-1H-indazol-3-yl)oxy)cyclohexan-1-amine]
pIC50 (human TLR7): 8.80 | pIC50 (human TLR8): 8.72 | pIC50 (human TLR9): 5.35

CCc1cc2c(OC3CCC(N(C)C)CC3)n[nH]c2cc1-c1cc(C)c2ncnn2c1 (single isomer, unassigned) [Example 191, 4-((5-ethyl-6-(8-methyl-[1,2,4]triazolo[1,5-a]pyridin-6-yl)-1H-indazol-3-yl)oxy)-N,N-dimethylcyclohexan-1-amine]
pIC50 (human TLR7): 8.59 | pIC50 (human TLR8): 9.30 | pIC50 (human TLR9): 4.83

CCc1cc2c(OC3CCC(N(C)C)CC3)n[nH]c2cc1-c1cc(C)c2ncnn2c1 (single isomer, unassigned) [Example 192, 4-((5-ethyl-6-(8-methyl-[1,2,4]triazolo[1,5-a]pyridin-6-yl)-1H-indazol-3-yl)oxy)-N,N-dimethylcyclohexan-1-amine]
pIC50 (human TLR7): 9.15 | pIC50 (human TLR8): 10.00 | pIC50 (human TLR9): 5.10

Cc1cc(-c2cc3[nH]nc(C4CCC(N5CCC6(CCOC6)C5)CC4)c3cc2C(C)C)cn2ncnc12 (single isomer, unassigned) [Example 209, 7-(4-(5-isopropyl-6-(8-methyl-[1,2,4]triazolo[1,5-a]pyridin-6-yl)-1H-indazol-3-yl)cyclohexyl)-2-oxa-7-azaspiro[4.4]nonane]
pIC50 (human TLR7): 9.21 | pIC50 (human TLR8): 10.30 | pIC50 (human TLR9): 5.10

Cc1cc(-c2cc3[nH]nc(C4CCC(N5CCC6(CCOC6)C5)CC4)c3cc2C(C)C)cn2ncnc12 (single isomer, unassigned) [Example 210, 7-(4-(5-isopropyl-6-(8-methyl-[1,2,4]triazolo[1,5-a]pyridin-6-yl)-1H-indazol-3-yl)cyclohexyl)-2-oxa-7-azaspiro[4.4]nonane]
pIC50 (human TLR7): 8.68 | pIC50 (human TLR8): 9.43 | pIC50 (human TLR9): 5.23

Cc1cc(-c2cc3[nH]nc(C4CCC(N5CCC(S(C)(=O)=O)C5)CC4)c3cc2C(C)C)cn2ncnc12 (single isomer, unassigned) [Example 211, 6-(5-isopropyl-3-(4-(3-(methylsulfonyl)pyrrolidin-1-yl)cyclohexyl)-1H-indazol-6-yl)-8-methyl-[1,2,4]triazolo[1,5-a]pyridine]
pIC50 (human TLR7): 8.60 | pIC50 (human TLR8): 9.82 | pIC50 (human TLR9): 4.49
